The source of these data is PubChem BioAssay AID179 (DTP/NCI, 2004).

Structures are written as SMILES. Calls of active or inactive are those of the source.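 Rule for the calls: active = compounds giving half or more protection of infected cells from virus-caused growth loss, again on retest; inactive = the rest.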 Where a SMILES comes first, the peptide text is derived from it.

In this test the test system is CEM cells HIV-1 protection, formazan growth assay. Kind of test: NCI AIDS Antiviral Assay. The note with it: for IC50: measured here: growth of uninfected CEM cells. The procedure, abridged:
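Category rules: moderately active means at least 50% protection on retest, and confirmed active means 100% protection reproducibly. The underlying data came from a formazan growth assay in HIV-1-infected CEM cells.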

As a reminder, the EC50 is the concentration at which the effect is half-maximal. As usually defined, the IC50 is the concentration that inhibits the measured activity by half. High values mean weaker potency in that assay, low ones greater potency in that assay. Turning to `C[C@H](NC(=O)c1ccccc1SC(=O)NCCCCl)C(N)=O`, the EC50 was found to be 3.63 µM and the IC50 turned out to be 44.7 µM. The corresponding values for `CN(C)C=Nc1ccc2nonc2c1` are over 200 µM and 151 µM. For `CCc1cccc(C(C)C)c1NC(=O)C(=O)C(c1ccccc1)S(=O)(=O)Cc1ccccc1` (stereo unspecified) the same measures were over 200 µM and over 200 µM. Consider `COc1ccc(OC)c(-c2cn3c(n2)sc2ccccc23)c1`, for which the EC50 is over 200 µM and the IC50 is 50.1 µM.

Regarding `CCCCCCCCCCCCCCCCCCOC(COP(=O)(O)OCC1CCC(n2ccc(NC(=O)CCCCCCCCCCCCCCC)nc2=O)O1)COP(=O)(O)OCC1OC(n2cc(C)c(=O)[nH]c2=O)CC1N=[N+]=[N-]` (stereo unspecified), the EC50 was 0.871 µM and the 50% inhibitory concentration (IC50) amounted to 50.1 µM.

With `CCOc1ccccc1NC(=O)CSc1nnc(Cc2ccccc2)o1`, the EC50 was over 182 µM and the IC50 came out at 10 µM.

Turning to `COc1ccc(C2(O)c3ccccc3C(=O)N(C)C2(O)c2ccc(OC)cc2)cc1` (stereo unspecified), the EC50 is over 200 µM and the half-maximal inhibitory concentration (IC50) worked out at 37.2 µM. Consider `O=C1C=CC2OC(c3ccccc3)[C@H](O)C2O1` (stereo partly specified), for which the EC50 was over 1070 µM and the half-inhibitory concentration (IC50) is 6.92 µM. Consider `O=C(O)CNS(=O)(=O)c1ccc(NCc2ccccc2)cc1`, for which the result was inactive. Consider `c1ccc(-c2nn3c(-c4ccccc4)nnc3o2)cc1`, for which the EC50 was over 200 µM and the IC50 amounted to 40.7 µM. Consider `OC(c1ccsc1)c1cc2ccccc2s1` (stereo unspecified), for which the EC50 is over 200 µM and the half-maximal inhibitory concentration (IC50) was determined as 107 µM. As for `Clc1ccc2c(c1)C1C(CO2)C(c2ccccc2)=NN1c1ccccc1` (stereo unspecified), the EC50 is over 27.5 µM and the half-inhibitory concentration (IC50) is over 27.5 µM. `CC(C)CCCC(C)[C@H]1CC[C@H]2[C@@H]3CC[C@H]4C[C@@H](CCC=C(c5cc(Cl)c(OCc6cccc(B(O)O)c6)c(C(=O)O)c5)c5cc(Cl)c(OCc6cccc(B(O)O)c6)c(C(=O)O)c5)CC[C@]4(C)[C@H]3CC[C@]12C` (stereo partly specified): the concentration giving a half-maximal response (EC50) is 138 µM and the IC50 was over 200 µM. The corresponding values for `CC(=O)OCC1OC(n2c3c(cc(C#N)c2=S)CCCCCC3)C(OC(C)=O)C(OC(C)=O)C1OC(C)=O` (stereo unspecified) are over 200 µM and 52.5 µM. The corresponding values for `CC1CCC(=O)C(C(=O)CC2CC(=O)N(C)C(=O)C2)C1` (stereo unspecified) are over 126 µM and over 126 µM. For `Nc1ccn(C2OC(CO)C(O)C2O)c(=O)n1` (stereo unspecified), the EC50 is over 2 µM and the concentration for half-maximal inhibition (IC50) came out at 0.00275 µM.

Consider `COC(=O)[C@]1(C)C(OC)=CC(=O)C2C1[C@H]1CCC[C@@H]21` (stereo partly specified), for which the outcome was inactive. Regarding `CCOC(=O)CCC(NC(=O)c1ccc(Nc2cnc3cc(C(F)(F)F)ccc3n2)cc1)C(=O)OCC` (stereo unspecified), the EC50 is over 200 µM and the 50% inhibitory concentration (IC50) worked out at 191 µM. Consider `C[N+]12CN3CN(C1)CP(=O)(C3)C2`, for which the EC50 is over 794 µM and the IC50 worked out at 115 µM. As for `CN(C)c1nc(=NCc2cccs2)ss1`, the EC50 was over 200 µM and the 50% inhibitory concentration (IC50) stood at 17.4 µM. Regarding `CC1=C(C#N)S(=O)(=O)c2c(oc(C)c2C)N1`, the EC50 is over 200 µM and the IC50 was over 200 µM.

On to `Oc1ccc(CCC2CCNc3ccccc32)cc1` (stereo unspecified), for which the EC50 is over 5.01 µM and the 50% inhibitory concentration (IC50) was over 5.01 µM. Turning to `CN1C(N)=NC(=O)/C1=C/c1ccccc1`, the EC50 was over 200 µM and the half-maximal inhibitory concentration (IC50) came to 115 µM. In the case of `NC(=O)NNC/C(Cl)=C(\Cl)C(=O)O`, the EC50 is over 1100 µM and the half-inhibitory concentration (IC50) was 191 µM. In the case of `COc1cccc(C2(C#N)CCN(C)CC2)c1`, the EC50 was over 1070 µM and the IC50 turned out to be 537 µM. For the molecule `CN(CCO)CCC1COc2ccccc2O1` (stereo unspecified), the outcome was inactive. For `CC1=C(C)C(=O)c2c(cc3ccccn23)C1=O`, the result was inactive. As for `CC(C)Sc1nncc(/C(N)=N/O)n1`, the EC50 is over 200 µM and the IC50 was over 200 µM.

For `C1CN2CCN3CCN4CCN1[P+]243`, the outcome was inactive. As for `S=c1[nH]c2ccc(Br)cc2c(=S)n1-c1ccccc1`, the EC50 is over 195 µM and the IC50 amounted to 56.2 µM. Turning to `N#CC1=C(N)N(/N=C/c2ccccc2)C(c2ccccc2)C1(C#N)C#N` (stereo unspecified), the EC50 is over 200 µM and the half-maximal inhibitory concentration (IC50) came to 3.89 µM. Take `Cc1n[nH]c(=O)n1-n1cccc1`: the EC50 is over 200 µM and the IC50 was over 200 µM. On to `O=C(c1ccc(Cl)cc1)N(C(=S)N1CCN(c2ccccn2)CC1)C1CCCCC1`, for which the EC50 is over 11.7 µM and the IC50 is 8.51 µM. As for `O=C(Nc1ccccc1S)c1ccccc1`, the concentration for a half-maximal effect (EC50) is 6.76 µM and the IC50 amounted to 10.5 µM. The corresponding values for `NCCCCC(NC(=O)OCc1ccccc1)C(=O)NCC(N)=O` (stereo unspecified) (HELM PEPTIDE1{[O=C(OCc1ccccc1)[*:2]].[NCCCCC(N[*:1])C(=O)[*:2]].G.[am]}$$$$V2.0) are over 200 µM and over 200 µM. For `N#CC(C(=O)/C(=N/NC(=O)c1ccccc1O)C(C#N)c1ccc(Br)cc1)c1ccc(Br)cc1` (stereo unspecified), the EC50 is over 23.4 µM and the IC50 is over 23.4 µM. As to `COc1ccc(C[C@H]2COC(=O)[C@@H]2Cc2ccc(Br)cc2)cc1OC`, the EC50 was over 200 µM and the IC50 came to 24.5 µM. As for `CC(=O)/C(=C\c1ccccc1)C(=O)Nc1ccccc1`, the EC50 was over 38 µM and the 50% inhibitory concentration (IC50) is over 38 µM.

For `CC1(C)C[C@H]2[C@H](O)C(CO)=C3CC(O)C3(C)[C@H]2C1` (stereo partly specified), the EC50 is over 141 µM and the IC50 was 66.1 µM. For `COC(=O)c1ccccc1/C=C1\Cc2ccc3c(c2C1=O)CCC3` the same measures were over 200 µM and over 200 µM. In the case of `O=[N+]([O-])c1nccn1CCC[n+]1ccc2ccccc2c1`, the EC50 was over 100 µM and the IC50 was 74.1 µM. For `Cc1ccc(N2C(=O)/C(=C/c3ccc(N(CCC#N)CCC#N)cc3)CC2(O)c2ccccc2)cc1` (stereo unspecified) the same measures were over 7.94 µM and over 7.94 µM. Turning to `OC1CCC2OOC1O2` (stereo unspecified), the outcome was inactive.

On to `COC1(OC)c2no[n+]([O-])c2CCC1O` (stereo unspecified), for which the EC50 is over 200 µM and the IC50 is over 200 µM. As to `Cc1ccc([N+](=O)[O-])c2c(NCCC[N+](C)(C)[O-])c3ccccc3nc12`, the EC50 is over 2 µM and the IC50 is 0.316 µM. For `NC(N)=NCc1ccc2c(c1)OCO2`, the EC50 is over 200 µM and the half-maximal inhibitory concentration (IC50) came to 166 µM. Consider `N=C(N)SCCNC[C@@H](O)[C@@H](O)CNCCSC(=N)N`, for which the EC50 was over 537 µM and the concentration for half-maximal inhibition (IC50) was 437 µM.

Regarding `COc1nc(C)nc2c1ncn2Cc1ccccc1`, the EC50 was over 200 µM and the IC50 was over 200 µM. Consider `COC1=C(C2=C(OC)C(=O)c3cc4c(c(O)c3C2=O)C(=O)OC(C)C4)C(=O)c2c(cc3c(c2O)C(=O)OC(C)C3)C1=O` (stereo unspecified), for which the result was inactive.

Consider `N#CC(C#N)=Cc1ccccc1F`, for which the EC50 was over 102 µM and the IC50 is 17.4 µM.

Turning to `O=c1c2ccc(Cl)cc2oc2c(CSc3ccccc3)cccc12`, the EC50 was over 200 µM and the IC50 turned out to be 9.77 µM. In the case of `O=C(NC(CSSCC(NC(=O)c1cnc2ccccc2n1)C(=O)O)C(=O)O)c1cnc2ccccc2n1` (stereo unspecified), the EC50 is over 200 µM and the IC50 was over 200 µM.

For `CNc1ccc(Cl)cc1S(=O)(=O)c1ccccc1[N+](=O)[O-]`, the 50% effective concentration (EC50) is 0.562 µM and the IC50 turned out to be 741 µM.

In the case of `CN(C)c1nc(N(C)C)nc(N(C)CN(C)c2ccccc2)n1`, the EC50 is over 100 µM and the half-inhibitory concentration (IC50) was over 100 µM. On to `CCOC(=O)c1cc(Sc2ccc(N)c(C(=O)OCC)c2)ccc1N`, for which the EC50 was over 200 µM and the concentration for half-maximal inhibition (IC50) is 15.5 µM.

For the molecule `CC1(C)CCC[C@@]2(C)C1CCC1(C)C(CCc3ccoc3)/C(=C/OS(=O)(=O)O)CCC12` (stereo partly specified) (tested in a mixture with another compound), the EC50 is over 145 µM and the concentration for half-maximal inhibition (IC50) was over 145 µM. Regarding `O=[As](O)(O)c1ccc(Cl)cc1Cl`, the EC50 is over 200 µM and the IC50 amounted to 95.5 µM. For the molecule `OC1(c2ccccc2)CCCCCCCCC(O)(c2ccccc2)CCCCCCCC1` (stereo unspecified), the EC50 is over 200 µM and the half-inhibitory concentration (IC50) was over 200 µM. Turning to `Cn1c2ccccc2n2c3ccccc3c(=O)c(C#N)c12`, the EC50 was over 200 µM and the IC50 turned out to be 2.57 µM.

As for `CCCCCCCCCCCCCCCCNC(=S)N/C=C(/C#N)C(=O)OC`, the result was inactive. `CCCCCCCC(=O)[O-].N.N.N.N.N.[Co+3].[O-][Cl+3]([O-])([O-])[O-]`: the outcome was inactive. `COC(=O)C1CCC(=S)N1C(=O)OCc1ccccc1` (stereo unspecified): the EC50 is over 200 µM and the concentration for half-maximal inhibition (IC50) is over 200 µM. In the case of `COc1ccc2nc(-c3ccccc3)cc(N=[N+]=[N-])c2c1`, the result was inactive.

For the molecule `COC(=O)C1CC(C=[N+](C)C)=C(SC)N1` (stereo unspecified), the EC50 was over 200 µM and the 50% inhibitory concentration (IC50) was over 200 µM. As to `NC(=O)C1C(=O)c2cccc3c2C1CCCC3` (stereo unspecified), the EC50 was over 234 µM and the half-inhibitory concentration (IC50) stood at 69.2 µM.

For `CCOC(=O)/C(=C/c1ccc(OC)cc1)P(=O)(OCC)OCC`, the EC50 is over 380 µM and the half-inhibitory concentration (IC50) amounted to 20.4 µM. Turning to `N#CC(C(=O)C(=O)Nc1ccc(Cl)c(Cl)c1)c1ccc(Cl)cc1` (stereo unspecified), the EC50 is over 135 µM and the IC50 is 107 µM. Regarding `COC(=O)C(C(=O)C(=O)Nc1nc2ccc([N+](=O)[O-])cc2s1)c1nc2ccc(Cl)cc2[nH]c1=O` (stereo unspecified), the EC50 was over 51.3 µM and the IC50 is over 51.3 µM. As for `CCC1(c2ccc(OC)c(OC)c2)CCN2C(=O)C(O)CC21` (stereo unspecified), the EC50 was over 200 µM and the concentration for half-maximal inhibition (IC50) was over 200 µM. For `COc1cc2c3c(c1)/C(=N\N)CCN3CCC2`, the EC50 was over 200 µM and the half-inhibitory concentration (IC50) came to 115 µM.

Regarding `CC1=C(C(=O)Nc2cc(F)c(F)cc2F)C(c2cccc([N+](=O)[O-])c2)C(C(=O)Nc2ccccc2C(F)(F)F)=C(C)N1` (stereo unspecified), the EC50 is over 43.7 µM and the half-maximal inhibitory concentration (IC50) was over 43.7 µM. With `O=[N+]([O-])C(Cl)=C/C(=C(\Cl)SCc1ccccc1)[N+](=O)[O-]`, the EC50 was over 200 µM and the half-inhibitory concentration (IC50) was 12 µM. `Nc1ccc2nc3n(c2c1)C(c1c(F)cccc1F)SC3` (stereo unspecified): the EC50 is over 200 µM and the IC50 is 126 µM.
